Assay results: patent US20100009956A1, “NOVEL SUBSTITUTED PYRIMIDINES AS CYSTEINE PROTEASE INHIBITORS” (Glaxo Group Limited , a corporation, priority 2006, published 2010)
Counter-ions that a name gives are not always drawn. Like-named read-outs stand apart in the source and are kept apart here.

How the values were obtained:
Type in all cases: biochemical
[1] = biological target: Falcipain-2 (Plasmodium falciparum, UniProt Q8I6U4); assay: Falcipain-2 enzymatic assay (assay 1)
Method: (§1) Assay 1) Determination of Falcipain-2, Falcipain-3, Vivapain-2, Cathepsin K Cathepsin S, Cathepsin L, and Cathepsin B Proteolytic Catalytic Activity
(§2) Assays for Falcipain-2, Falcipain-3, and Vivapain-2 are carried out with parasitic recombinant enzymes. Cathepsins K, S, L, and B are carried out with human recombinant enzymes. Standard assay conditions for the determination of kinetic constants used a fluorogenic peptide substrate, typically H-D-VLR-AFC (Falcipain-2, Falcipain-3, Vivapain-2), Z-FR-AFC (Cathepsin K, L, B), or KQKLR-AMC (Cathepsin S) and are determined in 100 mM sodium acetate, pH 5.5, containing 10 mM DTT and 0.5 mM CHAPS (Falcipain-2, Falcipain-3, Vivapain-2), and 100 mM sodium acetate, pH 5.5, containing 5 mM L-cysteine, 1 mM CHAPS and 5 mM EDTA (Cathepsin K, L, B), or 50 mM MES, pH 6.5, containing 0.5 mM CHAPS, 10 mM L-CYS, 5 mM EDTA (Cathepsin S). Stock substrate solutions are prepared at 20 mM in DMSO. The activity assays contained 30 uM substrate (Falcipain-2, Falcipain-3, Vivapain-2), 20 uM substrate (Cathepsin K), 25 uM substrate (Cathepsin B), 5 uM substrate (Cathepsin L), and 30 uM substrate (Cathepsin S). All assays contained 1% DMSO. […] All assays are conducted at ambient temperature as end point assays being quenched after 60 minutes with the exception of Cathepsin S at 90 minutes, with 16.6 uM E-64 in 1% DMSO. Product formation (AFC or AMC) is determined from fluorescence (excitation at 405 nm; emission at 530 nm, AFC, or excitation at 360 nm; emission at 460 nm, AMC) monitored with a LJL Aquest (Molecular Devices) fluorescent plate reader. In the case of kinetic reads (used in mechanism of action studies), the reaction is not quenched but is read in the plate reader every 3 minutes for approximately 90 minutes. In addition, the mechanism of action studies for Falcipain-2 utilize Z-LR-AMC as the substrate. Product formation is determined from the fluorescence of AMC, measured with a LJL Acquest (Molecular Devices) fluorescent plate reader (excitation at 360 nm; emission at 460 nm).
(§3) Potential inhibitors are evaluated using the quenched read (endpoint) method. Assays are carried out in the presence of variable concentrations of test compound. Reactions are initiated by addition of enzyme and substrate to wells containing inhibitor stamped in 100% DMSO. For endpoint assays, the reaction is quenched with the addition of E64. Dose response data is fit to an IC50 curve with preset fitting tools according to equation 1:
(§4) y=a+(b−a)/(1+(10^x/10^c)^d) (1)
(§5) where y is the response at a particular inhibitor concentration x, a is the minimum response value, b is the maximum response value, c is the IC50, and d is the slope of the IC50 curve. Assuming the compound is a competitive inhibitor, the apparent KI can be calculated from IC50, as shown in equation 2: […]

[2] = biological target: Falcipain-3 (Plasmodium falciparum, UniProt Q8IIL0); assay: Falcipain-3 enzymatic assay (assay 1)
Method: as §1, §2, §3, §4, §5

[3] = biological target: T1, Cathepsin K (Homo sapiens, UniProt P43235); assay: Cathepsin K enzymatic assay (assay 1); conditions: human recombinant enzyme, Z-FR-AFC substrate, pH 5.5
T1 sequence (P43235 115-329): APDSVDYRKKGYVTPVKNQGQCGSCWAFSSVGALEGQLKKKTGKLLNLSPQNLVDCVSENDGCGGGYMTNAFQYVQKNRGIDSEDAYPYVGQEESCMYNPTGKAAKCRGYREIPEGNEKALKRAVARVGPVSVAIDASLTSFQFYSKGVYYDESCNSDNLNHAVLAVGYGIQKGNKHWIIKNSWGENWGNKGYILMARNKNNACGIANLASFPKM
Method: as §1, §2, §3, §4, §5

Falcipain-3, sequence (Q8IIL0 243-492): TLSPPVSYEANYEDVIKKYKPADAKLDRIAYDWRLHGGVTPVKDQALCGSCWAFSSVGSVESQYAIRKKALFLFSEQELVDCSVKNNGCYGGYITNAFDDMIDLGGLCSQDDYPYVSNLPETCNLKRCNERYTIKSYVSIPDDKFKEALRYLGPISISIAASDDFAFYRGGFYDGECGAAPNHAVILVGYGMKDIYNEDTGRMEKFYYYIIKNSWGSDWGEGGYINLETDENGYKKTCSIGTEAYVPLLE
Falcipain-2, sequence (Q8I6U4 244-484): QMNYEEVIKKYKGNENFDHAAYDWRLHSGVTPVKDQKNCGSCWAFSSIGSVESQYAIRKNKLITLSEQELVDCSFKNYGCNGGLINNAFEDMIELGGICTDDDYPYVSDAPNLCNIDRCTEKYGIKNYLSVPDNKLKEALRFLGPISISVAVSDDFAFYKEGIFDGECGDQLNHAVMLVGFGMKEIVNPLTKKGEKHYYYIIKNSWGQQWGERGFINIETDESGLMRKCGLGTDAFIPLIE

| SMILES | IC50 [1] [nM] | IC50 [2] [nM] | IC50 [3] [nM] | IC50 ([1]; parasitic recombinant enzyme, H-D-VLR-AFC substrate, pH 5.5, endpoint read, read-out: Falcipain-2 IC50) [nM] |
| --- | --- | --- | --- | --- |
| CC1CCC(N(NC(=O)c2ccc(CN3CCN(C)CC3)cc2)c2nc(C#N)ncc2Br)C1 (mixture of isomers) [Example 26, N′-(5-bromo-2-cyano-4-pyrimidinyl)-N′-(3-methylcyclopentyl)-4-[(4-methyl-1-piperazinyl)methyl]benzohydrazide trifluoroacetate] | < 1 | 15 to 150 |  |  |
| C[C@@H]1CCC[C@H]1N(NC(=O)c1ccc(F)cc1)c1nc(C#N)ncc1Br (racemic) [Example 43, N′-(5-bromo-2-cyano-4-pyrimidinyl)-4-fluoro-N′-[(1R,2R+1S,2S))-2-methylcyclopentyl]benzohydrazide trifluoroacetate] | < 1 | 2.5 to 15 | < 17 |  |
| CN1CCN(Cc2ccc(C(=O)NN(CC(C)(C)C)c3nc(C#N)ncc3Br)cc2)CC1 [Comparative Example 39, N′-(5-bromo-2-cyano-4-pyrimidinyl)-N′-(2,2-dimethylpropyl)-4-[(4-methyl-1-piperazinyl)methyl]benzohydrazide trifluoroacetate, reference compound] | 15 to 150 | 150 to 250 |  |  |
| C[C@H]1CCC[C@H]1N(NC(=O)c1ccc(CN2CCN(C)CC2)cc1)c1nc(C#N)ncc1Br [Example 2, N′-(5-bromo-2-cyano-4-pyrimidinyl)-N′-[(1 R,2S+1S,2R)-2-methylcyclopentyl]-4-[(4-methyl-1-piperazinyl)methyl]benzohydrazide trifluoroacetate] | 1 to 2.5 | 15 to 150 | < 17 |  |
| C[C@@H]1CCC[C@H]1N(NC(=O)c1ccc(CN2CCN(C)CC2)cc1)c1nc(C#N)ncc1Br [Example 3, N′-(5-bromo-2-cyano-4-pyrimidinyl)-N′-[(1R,2R+1S,2S)-2-methylcyclopentyl]-4-[(4-methyl-1-piperazinyl)methyl]benzohydrazide trifluoroacetate] | < 1 | 2.5 to 15 | < 1.5 |  |
| N#Cc1ncc(Br)c(N(NC(=O)c2ccc(CN3CCC(N4CCOCC4)CC3)cc2)C2CCCC2)n1 [Example 6, N′-(5-bromo-2-cyano-4-pyrimidinyl)-N′-cyclopentyl-4-{([4-(4-morpholinyl)-1-piperidinyl]methyl}benzohydrazide trifluoroacetate] | < 1 | 2.5 to 15 | < 1.5 |  |
| CN1CCC(CN2CCN(Cc3ccc(C(=O)NN(c4nc(C#N)ncc4Br)C4CCCC4)cc3)CC2)CC1 [Example 7, N′-(5-bromo-2-cyano-4-pyrimidinyl)-N′-cyclopentyl-4-({4-[(1-methyl-4-piperidinyl)methyl]-1-piperazinyl}methyl)benzohydrazide trifluoroacetate] | < 1 | 2.5 to 15 | < 1.5 |  |
| CN1CCCC(CN2CCN(Cc3ccc(C(=O)NN(c4nc(C#N)ncc4Br)C4CCCC4)cc3)CC2)C1 (centres unmarked) [Example 8, N′-(5-bromo-2-cyano-4-pyrimidinyl)-N′-cyclopentyl-4-({4-[(1-methyl-3-piperidinyl)methyl]-1-piperazinyl}methyl)benzohydrazide trifluoroacetate] | < 1 | 2.5 to 15 | < 1.5 |  |
| CN1CCN(C(=O)C2CCN(Cc3ccc(C(=O)NN(c4nc(C#N)ncc4Br)C4CCCC4)cc3)CC2)CC1 [Example 9, N′-(5-bromo-2-cyano-4-pyrimidinyl)-N′-cyclopentyl-4-({4-[(4-methyl-1-piperazinyl)carbonyl]-1-piperidinyl}methyl)benzohydrazide trifluoroacetate] | < 1 | 2.5 to 15 | < 1.5 |  |
| N#Cc1ncc(Br)c(N(NC(=O)c2cccc(CN3CCC(N4CCOCC4)CC3)c2)C2CCCC2)n1 [Example 13, N′-(5-bromo-2-cyano-4-pyrimidinyl)-N′-cyclopentyl-3-{[4-(4-morpholinyl)-1-piperidinyl]methyl}benzohydrazide trifluoroacetate] | < 1 | 2.5 to 15 |  |  |
| CN1CCN(Cc2ccc(C(=O)NN(c3nc(C#N)ncc3Br)C3CCOCC3)cc2)CC1 [Example 42, N′-(5-bromo-2-cyano-4-pyrimidinyl)-4-[(4-methyl-1-piperazinyl)methyl]-N′-(tetrahydro-2H-pyran-4-yl)benzohydrazide trifluoroacetate] |  | 15 to 150 |  | < 1 |
| CN1CCN(C2CCN(Cc3ccc(C(=O)NN(c4nc(C#N)ncc4Br)C4CCN(C(=O)OCc5ccccc5)CC4)cc3)CC2)CC1 [Example 48, Phenylmethyl 4-{1-(5-bromo-2-cyano-4-pyrimidinyl)-2-[(4-{[4-(4-methyl-1-piperazinyl)-1-piperidinyl]methyl}phenyl)carbonyl]hydrazino}-1-piperidinecarboxylate triflouroacetate] | 1 to 2.5 | 2.5 to 15 |  |  |
| CN(CCO)Cc1ccc(C(=O)NN(c2nc(C#N)ncc2Cl)C2CCCC2)cc1 [Example 58, N′-(5-chloro-2-cyano-4-pyrimidinyl)-N′-cyclopentyl-4-{[(2-hydroxyethyl)(methyl)amino]methyl}benzohydrazide trifluoroacetate] | < 1 | 1 to 2.5 |  |  |
| CN1CCN(Cc2ccc(C(=O)NN(c3nc(C#N)ncc3Cl)C3CCOCC3)cc2)CC1 [Example 67, N′-(5-chloro-2-cyano-4-pyrimidinyl)-4-[(4-methyl-1-piperazinyl)methyl]-N′-(tetrahydro-2H-pyran-4-yl)benzohydrazide trifluoroacetate] | < 1 | 2.5 to 15 |  |  |
| CCN(Cc1ccc(C(=O)NN(c2nc(C#N)ncc2Cl)C2CCCC2)cc1)C(C)C [Example 68, N′-(5-chloro-2-cyano-4-pyrimidinyl)-N′-cyclopentyl-4-{[ethyl(1-methylethyl)amino]methyl}benzohydrazide trifluoroacetate] | < 1 | 2.5 to 15 |  |  |
| CN(Cc1ccc(C(=O)NN(c2nc(C#N)ncc2Cl)C2CCCC2)cc1)C(C)(C)C [Example 73, N′-(5-chloro-2-cyano-4-pyrimidinyl)-N′-cyclopentyl-4-{[(1,1-dimethylethyl)(methyl)amino]methyl}benzohydrazide trifluoroacetate] | < 1 | 2.5 to 15 |  |  |
| CCN(C)Cc1ccc(C(=O)NN(c2nc(C#N)ncc2Cl)C2CCCC2)cc1 [Example 74, N′-(5-chloro-2-cyano-4-pyrimidinyl)-N′-cyclopentyl-4-{[ethyl(methyl)amino]methyl}benzohydrazide trifluoroacetate] | < 1 | 15 to 150 |  |  |
| CC(C)N(Cc1ccc(C(=O)NN(c2nc(C#N)ncc2Cl)C2CCCC2)cc1)C1CCCCC1 [Example 75, N′-(5-chloro-2-cyano-4-pyrimidinyl)-4-{[cyclohexyl(1-methylethyl)amino]methyl}-N′-cyclopentylbenzohydrazide trifluoroacetate] | < 1 | 2.5 to 15 |  |  |
| CN(Cc1ccc(C(=O)NN(c2nc(C#N)ncc2Cl)C2CCCC2)cc1)CC(O)CO (centres unmarked) [Example 76, N′-(5-chloro-2-cyano-4-pyrimidinyl)-N′-cyclopentyl-4-{[(2,3-dihydroxypropyl)(methyl)amino]methyl}benzohydrazide trifluoroacetate] | < 1 | 2.5 to 15 |  |  |
| CN1CCN(c2cccc(C(=O)NN(c3nc(C#N)ncc3Cl)C3CCCC3)n2)CC1 [Example 78, N′-(5-chloro-2-cyano-4-pyrimidinyl)-N′-cyclopentyl-6-(4-methyl-1-piperazinyl)-2-pyridinecarbohydrazide trifluoroacetate] | < 1 | 15 to 150 |  |  |
